Laboratory results published in US11597708B2, “Inhibitors of heat shock factors and uses thereof” (HSF Pharmaceuticals SA, priority 2016, dated 2023).

How the values were obtained:
[1] = molecular target: T1, HSF1 levels (Homo sapiens, UniProt Q00613); assay: Anti-HSF1 western blot of HeLa cell extracts; format: cell-based; settings: same extracts of exposed, heat-treated HeLa cells
T1 construct: functionally linked to an hsp70b promoter and therefore controlled by endogenous HSF1; endogenous in cells; host or cells: HeLa cells / HeLa-derived cell line Z74
Protocol: (§1) FIG. 3. (A) HeLa cell cultures were mock-treated (−) or exposed for 2 hours to the indicated concentrations of compounds 058 or 115 and then heat-treated (HS) at 43° C. for 30 min. Top panels: HSF1 DNA-binding activities in cell extracts were determined by EMSA. The panels show the major HSF1-HSE DNA probe complexes. Middle panels: HSF1 levels assayed by western blot (WB). GAPDH served as a loading control. Bottom panels: HSF1 homooligomerization. Aliquots of extracts were EGS-treated and then analyzed by anti-HSF1 WB. The positions of pre-stained molecular weight marker proteins (MW, in thousands) are indicated to the right. Asterisks indicate the positions of monomeric and trimeric HSF1, respectively. (B) Relative occupancy of the hspa1a promoter was assessed by chromatin immunoprecipitation assay of HeLa cell cultures mock-treated (−) or treated with compounds 058 or 115 at 12.5 μM concentrations for 2 hours and then heat-treated (HS) at 43° C. for 30 min. Chromatin fragments were immunoprecipitated using HSF1 antibodies or an F4/80 LR (control) antibody, and associated hspa1a promoter DNA was quantified by real-time PCR. […]

[2] = system: hsp70b/hspa7 promoter-driven rluc gene; assay: Reverse transcription real-time PCR of rluc mRNA in Z74 cells; format: cell-based, human; settings: for rluc mRNA levels at 1 μM: 1 μM concentrations of the IHSF; for transcript levels of the hsp70b/hspa7 promoter-driven rluc gene: 2 h exposure at different concentrations, heat treatment, 1 h post-incubation at 37° C.
Protocol: (§2) FIG. 4. (A) rluc, hspa7 and hspa1a mRNA levels in Z74 cells mock-exposed (−) or exposed to the indicated concentrations of compounds 058 or 115 for 2 hours, heat-treated (HS) at 43° C. for 30 min and post-incubated for one hour at 37° C. mRNA levels were quantified by reverse transcription-real-time PCR. (B) HSP72 levels in HeLa cells mock-exposed (−) or exposed to the indicated concentrations of compounds 058 or 115 for 2 hours, heat-treated (HS) at 43° C. for 30 min and post-incubated for 6 hours at 37° C. HSP72 levels were estimated by HSP72 WB. GAPDH levels served as “loading controls”.
(§3) To assess the transcriptional effects of the IHSF, cultures of Z74 cells were exposed for two hours to IHSF 058 or IHSF 115 at different concentrations, or to vehicle. Following heat treatment and a one-hour post-incubation at 37° C., extracts were prepared, and polyadenylated rluc, hsp70b (hspa7) and hspa1a RNA was quantified by reverse transcription and real-time PCR. […] IHSF 115 had somewhat more important effects than IHSF 058. […] We tend to discount the possibility that the latter data report effects on transcript stability.

[3] = molecular target: T2, HSF1 DNA-binding activity (Homo sapiens, UniProt Q00613); assay: EMSA of extracts of heat-treated HeLa cells exposed to compound; format: cell-based; settings: HeLa cells exposed to different concentrations, heat-treated 43° C./30 min; effect of IHSF 058 at 25 or 50 μM
T2 construct: functionally linked to an hsp70b promoter and therefore controlled by endogenous HSF1; endogenous in cells; host or cells: HeLa cells / HeLa-derived cell line Z74
Protocol: as §1

[4] = system: hspa1a; assay: Reverse transcription real-time PCR of hspa1a mRNA in Z74 cells; format: cell-based, human; settings: heat-treated, somewhat less sensitive than rluc gene
Protocol: as §2, §3

[5] = system: inducible Hsp70 (HSP72); assay: HSP72 western blot in heat-treated HeLa cells; format: cell-based, human
Protocol: as §2

[6] = system: hspa7 (hsp70b); assay: Reverse transcription real-time PCR of hspa7 (hsp70b) mRNA in Z74 cells; format: cell-based, human; settings: heat-treated, somewhat less sensitive than rluc gene
Protocol: as §2, §3

[7] = system: hsp70b promoter-driven fluc gene; assay: Corroborating experiment in a cell line containing an hsp70b promoter-driven fluc gene; format: cell-based; settings: data not shown
Protocol: The compounds of the afore-mentioned biased sublibrary were screened in cell line Z74 at 12.5 and 25 μM concentrations. Typically, Z74 cultures in 96-well plates were exposed to compound or vehicle for 2 h, heat-treated at 43.0° C. for 30 min, and incubated further for 6 h at 37° C. to allow for accumulation of the luciferases. RLuc and FLuc activities were determined, typically using the Dual-Glo® Luciferase Assay System (Promega Corp., Madison, Wis.), and reading luciferase light counts in a Wallac Microbeta Trilux-1450 Luminometer (PerkinElmer, Waltham, Mass.). IHSF 001 was one of two library compounds that inhibited RLuc expression but not FLuc expression in heat-treated Z74 cells (Table 1; FIG. 2A). Therefore, IHSF 001 is an inhibitor of HSF1 function that specifically acts through the HSF1 DNA-binding domain. […] A corroborating experiment utilized a cell line containing an hsp70b promoter-driven fluc gene. […] IHSF 001 is (E)-ethyl 4-oxo-4-(thiazol-2-ylamino)but-2-enoate. The compound can be obtained from commercial sources (e.g., AKE-PB-90340538, Akos).

[8] = Dissolution in aqueous Kleptose HPB stock solution; format: physicochemical; settings: 85 mg in 8.5 ml of 357 mg/ml Kleptose HPB stock solution, overnight, slow agitation, room temperature
Protocol: 1. Prepare 15 ml of a 357 mg/ml stock solution of Kleptose HPB (Roquette Pharma) in water (of which the amount not used under 2 is reserved for vehicle controls).
2. Dissolve 85 mg of compound 0115 in 8.5 ml of Kleptose stock solution by incubating the solution overnight with slow agitation (at room temperature). Over 90% of the drug substance will be dissolved after this incubation.

T1 sequence (Q00613 whole entry): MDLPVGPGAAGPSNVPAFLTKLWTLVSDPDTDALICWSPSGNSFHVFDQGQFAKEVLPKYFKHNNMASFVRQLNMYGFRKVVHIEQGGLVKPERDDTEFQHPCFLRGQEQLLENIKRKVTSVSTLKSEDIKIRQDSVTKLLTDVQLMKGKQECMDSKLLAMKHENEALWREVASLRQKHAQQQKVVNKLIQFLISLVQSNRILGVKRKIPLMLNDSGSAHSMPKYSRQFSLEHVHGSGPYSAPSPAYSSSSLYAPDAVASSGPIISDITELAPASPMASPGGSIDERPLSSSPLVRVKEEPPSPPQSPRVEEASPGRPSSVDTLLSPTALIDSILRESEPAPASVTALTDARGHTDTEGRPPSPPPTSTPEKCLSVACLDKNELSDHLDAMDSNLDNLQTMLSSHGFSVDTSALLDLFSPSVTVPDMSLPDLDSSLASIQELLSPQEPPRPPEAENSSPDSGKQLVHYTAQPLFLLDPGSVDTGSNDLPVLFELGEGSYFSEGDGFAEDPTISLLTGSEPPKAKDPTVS
T2 sequence (Q00613 whole entry): as above

SMILES | HSF1 levels (anti-HSF1 western blot) [1] | rluc mRNA levels at 1 μM [2] | transcript levels of the hsp70b/hspa7 promoter-driven rluc gene [2] | heat-induced HSF1 DNA-binding activity (EMSA) [3] | hspa1a transcript accumulation [4] | heat-induced accumulation of inducible Hsp70 (WB), relative effectiveness [5] | hspa7 (hsp70b) transcript accumulation [6] | FLuc expression in hsp70b promoter-driven fluc line [7] | drug substance dissolved [8] | heat-induced accumulation of inducible Hsp70 (WB) ([5]; 3.125 μM) | heat-induced accumulation of inducible Hsp70 (WB) ([5]; 6.25 μM)
CCOC(=O)/C=C/C(=O)Nc1ncc(-c2cccnc2)s1 [IHSF 058, (E)-3-(5-Pyridm-3-yl-thiazol-2-ylcarbamoyl)-acrylic acid ethyl ester] | reduced levels of HSF1 | substantially reduced | dose-dependent reduction | important reductions | Dose-dependent inhibitory effects | less effective than IHSF 115 | Dose-dependent inhibitory effects |  |  |  | 
CCOC(=O)/C=C/C(=O)Nc1nccs1 [IHSF 001, (E)-ethyl 4-oxo-4-(thiazol-2-ylamino)but-2-enoate] |  |  |  |  |  |  |  | inhibit FLuc expression |  |  | 
CN(C(=O)/C=C/C1=NCCCO1)c1ncc(-c2cccnc2)s1 [IHSF 115, (E)-3-(5,6-Dihydro-4H-[1,3]oxazin-2-yl)-N-methyl-N-(5-pyridin-3-yl-thiazol-2-yl)-acrylamide] | did not affect HSF1 levels | substantially reduced | dose-dependent reduction | failed to have a similar effect | Dose-dependent inhibitory effects |  | Dose-dependent inhibitory effects |  | Over 90% | detectable inhibitory effects | more substantial effects
